Results: PubChem BioAssay (NCI)
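The compound was tested at five concentrations on cells cultured in 96-well plates, with a 48-hour exposure period. GI50 marks 50% less growth. TGI denotes the concentration required for complete inhibition of growth.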

Key:
Assay in all cases: NCI-60 cell line screen, 48 h
SK-OV-3 ovarian = system: SK-OV-3 ovarian
HOP-62 NSCLC = system: HOP-62 NSCLC
OVCAR-5 ovarian = system: OVCAR-5 ovarian
NCI/ADR-RES ovarian = system: NCI/ADR-RES ovarian
UACC-257 melanoma = system: UACC-257 melanoma
786-0 renal = system: 786-0 renal
SF-295 CNS = system: SF-295 CNS
PC-3 prostate = system: PC-3 prostate
MALME-3M melanoma = system: MALME-3M melanoma
UO-31 renal = system: UO-31 renal
A498 renal = system: A498 renal
KM12 colon = system: KM12 colon
MCF7 breast = system: MCF7 breast
HS 578T breast = system: HS 578T breast
HT29 colon = system: HT29 colon
SN12C renal = system: SN12C renal
NCI-H522 lung = system: NCI-H522 lung
HOP-92 NSCLC = system: HOP-92 NSCLC
HCC-2998 colon = system: HCC-2998 colon
UACC-62 melanoma = system: UACC-62 melanoma
DU-145 prostate = system: DU-145 prostate
NCI-H226 lung = system: NCI-H226 lung
K-562 leukemia = system: K-562 leukemia
COLO 205 colon = system: COLO 205 colon
CCRF-CEM leukemia = system: CCRF-CEM leukemia
MDA-MB-435 = system: MDA-MB-435
MOLT-4 leukemia = system: MOLT-4 leukemia
A549 NSCLC = system: A549 NSCLC
HL-60(TB) leukemia = system: HL-60(TB) leukemia
LOX IMVI melanoma = system: LOX IMVI melanoma
SW-620 colon = system: SW-620 colon
SK-MEL-2 melanoma = system: SK-MEL-2 melanoma
MDA-MB-468 breast = system: MDA-MB-468 breast
ACHN renal = system: ACHN renal
MDA-MB-231 breast = system: MDA-MB-231 breast
NCI-H460 lung = system: NCI-H460 lung
SR leukemia = system: SR leukemia
EKVX NSCLC = system: EKVX NSCLC
SF-539 CNS = system: SF-539 CNS
T-47D breast = system: T-47D breast
OVCAR-4 ovarian = system: OVCAR-4 ovarian
RXF 393 renal = system: RXF 393 renal
SK-MEL-5 melanoma = system: SK-MEL-5 melanoma
OVCAR-3 ovarian = system: OVCAR-3 ovarian
CAKI-1 renal = system: CAKI-1 renal
IGROV1 ovarian = system: IGROV1 ovarian
BT-549 breast = system: BT-549 breast
SNB-19 CNS = system: SNB-19 CNS
M14 melanoma = system: M14 melanoma
RPMI-8226 leukemia = system: RPMI-8226 leukemia
U251 CNS = system: U251 CNS
SF-268 CNS = system: SF-268 CNS
OVCAR-8 ovarian = system: OVCAR-8 ovarian
HCT-116 colon = system: HCT-116 colon
SK-MEL-28 melanoma = system: SK-MEL-28 melanoma
NCI-H23 lung = system: NCI-H23 lung
TK-10 renal = system: TK-10 renal
HCT-15 colon = system: HCT-15 colon

With `O=S(=O)(Nc1cccc(-n2cnc3cc(-c4ccc(O)cc4)ccc32)c1)C1CC1` the GI50 (SK-OV-3 ovarian) was 3.84 µM, the TGI (SK-OV-3 ovarian) was 13.4 µM and the GI50 (HOP-62 NSCLC) was 4.63 µM. The TGI (HOP-62 NSCLC) was 19.4 µM, the GI50 (OVCAR-5 ovarian) was 6.77 µM and the TGI (OVCAR-5 ovarian) was 20.6 µM. For the same compound, the GI50 (NCI/ADR-RES ovarian) was 3.52 µM, the TGI (NCI/ADR-RES ovarian) was 36.5 µM and the GI50 (UACC-257 melanoma) was 10.2 µM. For the same compound, the TGI (UACC-257 melanoma) was 22 µM, the GI50 (786-0 renal) was 4.7 µM and the TGI (786-0 renal) was 16.9 µM. The GI50 (SF-295 CNS) was 2.36 µM, the TGI (SF-295 CNS) was 11.4 µM and the GI50 (PC-3 prostate) was 3.2 µM. It also gave a TGI (PC-3 prostate) of 17 µM, a GI50 (MALME-3M melanoma) of 3.54 µM and a TGI (MALME-3M melanoma) of 18.4 µM. The GI50 (UO-31 renal) was 2.19 µM, the TGI (UO-31 renal) was 13.9 µM and the GI50 (A498 renal) was 3.31 µM. It also gave a TGI (A498 renal) of 10.4 µM, a GI50 (KM12 colon) of 0.654 µM and a TGI (KM12 colon) of 13.2 µM. For the same compound, the GI50 (MCF7 breast) was 1.96 µM, the TGI (MCF7 breast) was 16.8 µM and the GI50 (HS 578T breast) was 1.93 µM. For the same compound, the TGI (HS 578T breast) was 7.42 µM, the GI50 (HT29 colon) was 2.6 µM and the TGI (HT29 colon) was 8.59 µM. For the same compound, the GI50 (SN12C renal) was 3.7 µM, the TGI (SN12C renal) was 15.1 µM and the GI50 (NCI-H522 lung) was 0.82 µM. It also gave a TGI (NCI-H522 lung) of 3.66 µM, a GI50 (HOP-92 NSCLC) of 1.43 µM and a TGI (HOP-92 NSCLC) of 8.43 µM. For the same compound, the GI50 (HCC-2998 colon) was 4.4 µM, the TGI (HCC-2998 colon) was 19.6 µM and the GI50 (UACC-62 melanoma) was 1.62 µM. For the same compound, the TGI (UACC-62 melanoma) was 14.3 µM, the GI50 (DU-145 prostate) was 4.19 µM and the TGI (DU-145 prostate) was 15 µM. For the same compound, the GI50 (NCI-H226 lung) was 6.23 µM, the TGI (NCI-H226 lung) was 27.8 µM and the GI50 (K-562 leukemia) was 0.546 µM. For the same compound, the TGI (K-562 leukemia) was > 100 µM, the GI50 (COLO 205 colon) was 3.17 µM and the TGI (COLO 205 colon) was 11.1 µM. For the same compound, the GI50 (CCRF-CEM leukemia) was 2.62 µM, the TGI (CCRF-CEM leukemia) was 14.5 µM and the GI50 (MDA-MB-435) was 0.311 µM. It also gave a TGI (MDA-MB-435) of 1.33 µM, a GI50 (MOLT-4 leukemia) of 2.01 µM and a TGI (MOLT-4 leukemia) of 14.1 µM. It also gave a GI50 (A549 NSCLC) of 4.04 µM, a TGI (A549 NSCLC) of 17.1 µM and a GI50 (HL-60(TB) leukemia) of 1.38 µM. It also gave a TGI (HL-60(TB) leukemia) of 5.63 µM, a GI50 (LOX IMVI melanoma) of 3.14 µM and a TGI (LOX IMVI melanoma) of 14.7 µM. For the same compound, the GI50 (SW-620 colon) was 1.5 µM, the TGI (SW-620 colon) was 17.4 µM and the GI50 (SK-MEL-2 melanoma) was 2.87 µM. For the same compound, the TGI (SK-MEL-2 melanoma) was 14.5 µM, the GI50 (MDA-MB-468 breast) was 1.44 µM and the TGI (MDA-MB-468 breast) was 6.58 µM. The GI50 (ACHN renal) was 4.86 µM, the TGI (ACHN renal) was 16.8 µM and the GI50 (MDA-MB-231 breast) was 3.4 µM. The TGI (MDA-MB-231 breast) was 20.8 µM, the GI50 (NCI-H460 lung) was 3.03 µM and the TGI (NCI-H460 lung) was 13 µM. It also gave a GI50 (SR leukemia) of 0.391 µM, a TGI (SR leukemia) of 65.5 µM and a GI50 (EKVX NSCLC) of 6.56 µM. For the same compound, the TGI (EKVX NSCLC) was 21.6 µM, the GI50 (SF-539 CNS) was 1.53 µM and the TGI (SF-539 CNS) was 6.1 µM. It also gave a GI50 (T-47D breast) of 2.73 µM, a TGI (T-47D breast) of 14.5 µM and a GI50 (OVCAR-4 ovarian) of 4.03 µM. It also gave a TGI (OVCAR-4 ovarian) of 17.3 µM, a GI50 (RXF 393 renal) of 2.19 µM and a TGI (RXF 393 renal) of 7.7 µM. It also gave a GI50 (SK-MEL-5 melanoma) of 3.13 µM, a TGI (SK-MEL-5 melanoma) of 14.1 µM and a GI50 (OVCAR-3 ovarian) of 2.14 µM. The TGI (OVCAR-3 ovarian) was 10.3 µM, the GI50 (CAKI-1 renal) was 3.25 µM and the TGI (CAKI-1 renal) was 14.6 µM. The GI50 (IGROV1 ovarian) was 4.58 µM, the TGI (IGROV1 ovarian) was 17.7 µM and the GI50 (BT-549 breast) was 2.59 µM. The TGI (BT-549 breast) was 12.5 µM, the GI50 (SNB-19 CNS) was 5.95 µM and the TGI (SNB-19 CNS) was 19.8 µM. The GI50 (M14 melanoma) was 2.36 µM, the TGI (M14 melanoma) was 17.6 µM and the GI50 (RPMI-8226 leukemia) was 2.83 µM. The TGI (RPMI-8226 leukemia) was 9.46 µM, the GI50 (U251 CNS) was 2.65 µM and the TGI (U251 CNS) was 13.8 µM. For the same compound, the GI50 (SF-268 CNS) was 3.79 µM, the TGI (SF-268 CNS) was 17.2 µM and the GI50 (OVCAR-8 ovarian) was 3.23 µM. The TGI (OVCAR-8 ovarian) was 14.5 µM, the GI50 (HCT-116 colon) was 2.82 µM and the TGI (HCT-116 colon) was 15.3 µM. The GI50 (SK-MEL-28 melanoma) was 6.68 µM, the TGI (SK-MEL-28 melanoma) was 20 µM and the GI50 (NCI-H23 lung) was 5.04 µM. The TGI (NCI-H23 lung) was 20.6 µM, the GI50 (TK-10 renal) was 8.98 µM and the TGI (TK-10 renal) was 20.9 µM. For the same compound, the GI50 (HCT-15 colon) was 1.62 µM and the TGI (HCT-15 colon) was 14.1 µM.
